Measured values: article PMC12024397, “Structure–Activity Study of the Antimicrobial Lipopeptide Humimycin A and Screening Against Multidrug-Resistant Staphylococcus aureus” (Antibiotics, 2025)
Converted amounts (≈) assume the structure as drawn. Non-standard residues stand in square brackets, D forms with d. Residues, ends and D or L forms follow the SMILES beside them. *: point of attachment. Tetradecanoyl(3R-OH) = CCCCCCCCCCC[C@@H](O)CC(=O)*; Tetradecanoyl(3S-OH) = CCCCCCCCCCC[C@H](O)CC(=O)*

Legend:
[1] = system: Escherichia coli ATCC 25922; experiment: MIC, broth microdilution; type: cell-based; details: 37 °C, 18–20 h, triplicate
From the text: (§1) Analogs were serially diluted two-fold from stock solutions.

[2] = system: Pseudomonas aeruginosa ATCC 27853; experiment: MIC, broth microdilution; type: cell-based; details: 37 °C, 18–20 h, triplicate
From the text: as §1

[3] = system: Bacillus subtilis ATCC 23857; experiment: MIC, broth microdilution; type: cell-based; details: 37 °C, 18–20 h, triplicate
From the text: as §1

[4] = system: Salmonella enterica ATCC 14028; experiment: MIC, broth microdilution; type: cell-based; details: 37 °C, 18–20 h, triplicate
From the text: as §1

[5] = system: human red blood cells; type: cell-based; details: red cells of human, 1 h
Method: Figure 3 The hemolytic activity of synthetic humimycin analogs 12R, 12S, 13R, and 13S on human erythrocytes. Positive control: 0.2% Triton X-100 in PBS, negative control: PBS. The data represent the mean ± standard deviation of three independent experiments.
Hemolytic potential of the humimycin analogs 12R, 12S, 13R, and 13S, was evaluated by exposing fresh, uninfected red blood cells (RBCs) to 16 two-fold serial dilutions of each analog, ranging from 512 μg/mL to 0.015 μg/mL, in RPMI-1640 medium supplemented with HEPES and containing a maximum of 0.5% dimethyl sulfoxide (DMSO). The assay was performed in round-bottom 96-well plates at a final hematocrit of 1%. Mock control wells contained RBCs in RPMI-1640 with 1% DMSO, while 100% lysis control wells contained RBCs in RPMI-1640 with 1% DMSO and 1% Triton X-100. The plates were incubated for 1 h at 37 °C under a gassed atmosphere. Following incubation, the plates were centrifuged at 800× g for 5 min, and 100 μL of supernatant from each well was transferred to a clean flat-bottom 96-well plate. The absorbance of released hemoglobin in the supernatant was measured at 405 nm using a VICTOR plate reader (PerkinElmer). The percentage of hemolysis was calculated by comparing the absorbance of the supernatant from compound-treated RBCs to that of the mock control and 100% lysis control wells. All assays were performed in triplicates.

[6] = system: Staphylococcus aureus ATCC 43300; type: cell-based; details: for MIC: ATCC 43300; for fold decrease in activity against the methicillin-resistant strain: MIC against MRSA ATCC 43300 compared with MSSA ATCC 29213
From the text: as §1

[7] = system: Staphylococcus aureus ATCC 29213; type: cell-based
From the text: as §1

[8] = system: S. aureus strain A-165; details: broth microdilution, triplicate; isolate A-165, resistance PEN-CEF-CTX-FOX-CIP-CC-KAN-GEN-STR-P/N
From the text: (§2) The bacterial strains used in this study included S. aureus ATCC 29213 and ATCC 43300, B. subtilis ATCC […], E. coli ATCC 25922, P. aeruginosa ATCC 27853, and S. enterica serovar Typhimurium ATCC 14028, all of which were purchased from Cedarlane, Canada. Additionally, a collection of 19 S. aureus strains, ranging from antibiotic-sensitive to multidrug-resistant, and originating from clinical intramammary infections (IMI), was selected from the Mastitis Pathogen Culture Collection of the Canadian Bovine Mastitis Research Network (Université de Montréal, St-Hyacinthe, QC, Canada). These strains, previously used in other studies, were also included in this work. S. aureus ATCC 29213 and B. subtilis ATCC 6633 were cultured in Tryptic Soy Broth (TSB) (Difco^TM, Becton, Dickenson & Company, Spark, MD, USA). E. coli ATCC 25922 and P. aeruginosa ATCC 27853 were grown in Luria–Bertani (LB) broth (Fisher Scientific, Fair Lawn, NJ, USA). S. enterica serovar Typhimurium ATCC 14028 was propagated in Nutrient Broth (NB) (Oxoid, Basingstoke, UK). All bacterial cultures were incubated overnight at 37 °C before use and during the performance of assays.
(§3) MIC assays were performed using the broth microdilution method in 96-well plates. Analogs were serially diluted two-fold from stock solutions. The plates were incubated overnight at 37 °C and bacterial growth was monitored by measuring the absorbance at 595 nm over 18–20 h and the assay was performed in triplicate.

[9] = system: S. aureus strain 4-170; details: broth microdilution, triplicate; isolate 4-170, no resistance profile listed
From the text: as §2, §3

[10] = system: S. aureus strain 4-134; details: broth microdilution, triplicate; isolate 4-134, resistance PEN-VAN-CEF-CTX-FOX-ERY-CC-TET-KAN-GEN-STR
From the text: as §2, §3

[11] = system: S. aureus strain 4-140; details: broth microdilution, triplicate; isolate 4-140, resistance TET
From the text: as §2, §3

[12] = system: S. aureus strain 4-121; details: broth microdilution, triplicate; isolate 4-121, no resistance profile listed
From the text: as §2, §3

[13] = system: S. aureus strain 4-144; details: broth microdilution, triplicate; isolate 4-144, resistance PEN-AMC-CEF-CTX-FOX-CIP-CHL-ERY-TET
From the text: as §2, §3

[14] = system: S. aureus strain 4-131; details: broth microdilution, triplicate; isolate 4-131, no resistance profile listed
From the text: as §2, §3

[15] = system: S. aureus ATCC 29213; experiment: growth kinetics; type: cell-based, Staphylococcus aureus; details: TSB, 37 °C, 6 h, OD 595 nm every 2 h, peptide at MIC, three independent experiments
Method: Figure 2 Growth kinetics of S. aureus ATCC 29213 in the presence of humimycin analogs 12R, 12S, 13R, and 13S. Cultures of S. aureus were treated with various concentrations (2 × MIC, MIC, ½ × MIC, and ¼ × MIC) of the peptides and their growth was monitored by measuring the optical density at 595 nm. The positive control consisted of an untreated S. aureus culture, while the negative control contained only the growth medium without bacterial inoculation. The data represents the mean ± standard deviation of three independent experiments.
The growth kinetics of S. aureus ATCC 29213 in presence of humimycin analogs 12R, 12S, 13R, and 13S was assessed on S. aureus cultures in TSB at 37 °C in the stationary phase. The overnight culture was then diluted 1:100 in fresh TSB to achieve an initial optical density at 600 nm (OD600) of approximately 0.05. Humimycin analogs were prepared at concentrations corresponding to 0.5×, 1×, and 2× the MIC. S. aureus cultures without any analog served as the positive control and culture media was the negative control. The treated and control cultures were incubated at 37 °C for a total duration of 6 h. Absorbance readings at 595 nm were recorded every 2 h using a microplate reader to monitor the bacterial growth. The OD595 values were then plotted against time to generate bacterial growth curves. To ensure reproducibility, all experiments were performed in triplicate, with results expressed in a graph as mean ± standard deviation.

CCCCCCCCCCC[C@@H](O)CC(=O)N[C@@H](Cc1c[nH]c2ccccc12)C(=O)N[C@@H](CO)C(=O)N[C@H](Cc1c[nH]c2ccccc12)C(=O)N[C@@H](Cc1ccccc1)C(=O)N[C@@H](C(=O)N[C@H](C(=O)N[C@H](C(=O)O)C(C)C)C(C)C)[C@H](C)O [12R] ({Tetradecanoyl(3R-OH)}-WS[dW]F[dT]VV-OH)
MIC [1]: - (No antimicrobial activity was detected up to 256 µg/mL)
MIC [2]: - (No antimicrobial activity was detected up to 256 µg/mL)
MIC [3]: - (No antimicrobial activity was detected up to 256 µg/mL)
MIC [4]: - (No antimicrobial activity was detected up to 256 µg/mL)
HC50 [5]: 44.8 µg/mL
MIC [6]: 16 µg/mL (≈ 13.9 µM)
MIC [7]: 16 µg/mL (≈ 13.9 µM)
MIC [8]: 256 µg/mL (≈ 223 µM)
MIC [9]: 4 µg/mL (≈ 3.48 µM)
MIC [10]: >256 µg/mL
MIC [11]: 8 µg/mL (≈ 6.95 µM)
MIC [12]: 32 µg/mL (≈ 27.8 µM)
MIC [13]: 8 µg/mL (≈ 6.95 µM)
MIC [14]: >256 µg/mL
effect on bacterial growth at MIC [15]: effectively inhibited the growth

CCCCCCCCCCC[C@H](O)CC(=O)N[C@@H](Cc1c[nH]c2ccccc12)C(=O)N[C@@H](CO)C(=O)N[C@H](Cc1c[nH]c2ccccc12)C(=O)N[C@@H](Cc1ccccc1)C(=O)N[C@@H](C(=O)N[C@H](C(=O)N[C@H](C(=O)O)C(C)C)C(C)C)[C@H](C)O [12S] ({Tetradecanoyl(3S-OH)}-WS[dW]F[dT]VV-OH)
MIC [1]: - (No antimicrobial activity was detected up to 256 µg/mL)
MIC [2]: - (No antimicrobial activity was detected up to 256 µg/mL)
MIC [3]: - (No antimicrobial activity was detected up to 256 µg/mL)
MIC [4]: - (No antimicrobial activity was detected up to 256 µg/mL)
HC50 [5]: 60.8 µg/mL
MIC [6]: 16 µg/mL (≈ 13.9 µM)
MIC [7]: 8 µg/mL (≈ 6.95 µM)
MIC [8]: 256 µg/mL (≈ 223 µM)
MIC [9]: 8 µg/mL (≈ 6.95 µM)
MIC [10]: >256 µg/mL
MIC [11]: 16 µg/mL (≈ 13.9 µM)
MIC [12]: 32 µg/mL (≈ 27.8 µM)
MIC [13]: 16 µg/mL (≈ 13.9 µM)
MIC [14]: >256 µg/mL
effect on bacterial growth at MIC [15]: effectively inhibited the growth

CCCCCCCCCCC[C@@H](O)CC(=O)N[C@@H](Cc1c[nH]c2ccccc12)C(=O)N[C@@H](CO)C(=O)N[C@H](Cc1c[nH]c2ccccc12)C(=O)N[C@@H](Cc1ccccc1)C(=O)N[C@@H](C(=O)N[C@@H](C)C(=O)N[C@H](C(=O)O)C(C)C)[C@H](C)O [13R] ({Tetradecanoyl(3R-OH)}-WS[dW]F[dT]AV-OH)
MIC [1]: - (No antimicrobial activity was detected up to 256 µg/mL)
MIC [2]: - (No antimicrobial activity was detected up to 256 µg/mL)
MIC [3]: - (No antimicrobial activity was detected up to 256 µg/mL)
MIC [4]: - (No antimicrobial activity was detected up to 256 µg/mL)
HC50 [5]: 76.8 µg/mL
MIC [6]: 128 µg/mL (≈ 114 µM)
fold decrease in activity against the methicillin-resistant strain [6]: 32 fold
MIC [7]: 4 µg/mL (≈ 3.56 µM)
MIC [8]: >256 µg/mL
MIC [9]: 8 µg/mL (≈ 7.13 µM)
MIC [10]: >256 µg/mL
MIC [11]: 16 µg/mL (≈ 14.3 µM)
MIC [12]: 256 µg/mL (≈ 228 µM)
MIC [13]: 8 µg/mL (≈ 7.13 µM)
MIC [14]: >256 µg/mL
effect on bacterial growth at MIC [15]: effectively inhibited the growth

CCCCCCCCCCC[C@H](O)CC(=O)N[C@@H](Cc1c[nH]c2ccccc12)C(=O)N[C@@H](CO)C(=O)N[C@H](Cc1c[nH]c2ccccc12)C(=O)N[C@@H](Cc1ccccc1)C(=O)N[C@@H](C(=O)N[C@@H](C)C(=O)N[C@H](C(=O)O)C(C)C)[C@H](C)O [13S] ({Tetradecanoyl(3S-OH)}-WS[dW]F[dT]AV-OH)
MIC [1]: - (No antimicrobial activity was detected up to 256 µg/mL)
MIC [2]: - (No antimicrobial activity was detected up to 256 µg/mL)
MIC [3]: - (No antimicrobial activity was detected up to 256 µg/mL)
MIC [4]: - (No antimicrobial activity was detected up to 256 µg/mL)
HC50 [5]: 48 µg/mL
MIC [6]: 64 µg/mL (≈ 57 µM)
fold decrease in activity against the methicillin-resistant strain [6]: 32 fold
MIC [7]: 2 µg/mL (≈ 1.78 µM)
MIC [8]: >256 µg/mL
MIC [9]: 8 µg/mL (≈ 7.13 µM)
MIC [10]: >256 µg/mL
MIC [11]: 16 µg/mL (≈ 14.3 µM)
MIC [12]: 256 µg/mL (≈ 228 µM)
MIC [13]: 16 µg/mL (≈ 14.3 µM)
MIC [14]: >256 µg/mL
effect on bacterial growth at MIC [15]: effectively inhibited the growth
